Results taken from publication PMC6934184, “Selective DNA-PKcs inhibition extends the therapeutic index of localized radiotherapy and chemotherapy” (The Journal of Clinical Investigation, 2019).

Assays:
Assay type in all cases: cell-based, human
SJSA-1 = assay: clonogenic survival with etoposide; details: NU5455 1 μM, 24 hours
Description: (§1) Cell line γH2AX and 53BP1 foci immunofluorescence and quantitation
(§2) Cells grown on coverslips or in 96-well plates were treated with 1 or 5 µM NU5455 or DMSO 1 hour prior to irradiation (0, 2.5 or 10 Gy) using an RS 320 X-ray Research System (Gulmay Medical). At set timepoints (15 or 30 minutes, or 1, 4, 5, 6, or 24 hours post-irradiation), cells were washed and fixed in methanol or 3% paraformaldehyde (PFA). […] In A549 and Calu-6, cells were Hoechst stained (5 µg/ml), and the average numbers of γH2AX and 53BP1 foci per cell were quantified from 400 nuclei per sample using an In Cell analyzer 1000 (GE Healthcare). For MCF7 cells, coverslips were mounted using Vectashield mounting medium with DAPI (Vector Labs) and imaged using a Leica TCS SPE confocal fluorescence microscope. Total fluorescence intensity was determined using ImagePro Plus 5.0 software (Media Cybernetics). […]
(§3) Cells were washed in phosphate-buffered saline (PBS), trypsinized and counted. […] Colonies were fixed using Carnoys fixture (75% v/v methanol, 25% v/v acetic acid, Fisher), stained with crystal violet (0.4% w/v in water), and counted using a ColCount automated colony counter (Oxford Optronics). Cell survival was calculated as a percentage of the untreated control. […]

[1] = test system: DNA-PK–expressing tumor cell lines; assay: clonogenic survival with IR, tumor cell line panel; details: 1 μM, 24 hours
Description: as §1, §2, §3

Calu-6 cells = assay: γH2AX and 53BP1 foci after 10 Gy; details: 5 μM, 5 hours after irradiation
Description: as §1
(§4) Cells grown on coverslips or in 96-well plates were treated with 1 or 5 µM NU5455 or DMSO 1 hour prior to irradiation (0, 2.5 or 10 Gy) using an RS 320 X-ray Research System (Gulmay Medical). At set timepoints (15 or 30 minutes, or 1, 4, 5, 6, or 24 hours post-irradiation), cells were washed and fixed in methanol or 3% paraformaldehyde (PFA). Cells were blocked and permeabilized in 1% (v/v) goat serum/1% (w/v) BSA/0.1% (v/v) Triton X100 or 0.1% (v/v) Triton X100 containing 10% (w/v) dried milk powder and 2% (w/v) bovine serum albumin, followed by incubation with antibodies against γH2AX (JBW301, Millipore #05-636) and/or 53BP1 (Cell Signaling #4937). Cells were then washed and incubated with Alexa Fluor 488 goat anti-mouse and/or Alexa Fluor 568 goat anti -rabbit antibodies (A11001 or A11011 respectively, Invitrogen). In A549 and Calu-6, cells were Hoechst stained (5 µg/ml), and the average numbers of γH2AX and 53BP1 foci per cell were quantified from 400 nuclei per sample using an In Cell analyzer 1000 (GE Healthcare). For MCF7 cells, coverslips were mounted using Vectashield mounting medium with DAPI (Vector Labs) and imaged using a Leica TCS SPE confocal fluorescence microscope. Total fluorescence intensity was determined using ImagePro Plus 5.0 software (Media Cybernetics).
(§5) Clonogenic survival assays […]

A549 cells = assay: γH2AX and 53BP1 foci after 10 Gy; details: 5 μM, 5 hours after irradiation
Description: as §1, §4, §5

In the case of CN(C(=O)CN1CCOCC1)c1ccc2sc3c(-c4cccc5c(=O)cc(N6CC7CCC(C6)O7)oc45)cccc3c2c1 [NU5455], the “Fold potentiation of etoposide (LD80, SER80)” value (SJSA-1) is reported as 4.1 fold, the “SER80 values, median over cell lines” value [1] is reported as 2.3 fold and the “number of colocalized γH2AX and 53BP1 foci” value (Calu-6 cells) is reported as “significant increase”. The “number of colocalized γH2AX and 53BP1 foci” value (A549 cells) was “significant increase”.
